Experiment [1] can be described thus: Fluorescence titration of cadmium ions in cuvettes. Type of experiment: binding. As to conditions: 50 mM MOPS pH 7, metal titrated up to 100 μM. The protocol: A dye stock (709 μM) solution of Compound 10 was prepared in DMSO. Lead, cadmium and mercury solutions from 0-100 μM were prepared in disposable cuvettes by diluting a 100 μM metal stock solutions to a final volume of 2 mL with 50 mM MOPS (pH7). The 100 μM metal stocks were also in 50 mM MOPS (pH7). For the cadmium titration, dye stock was added to give a final concentration of 0.35 μM. For the lead and mercury titrations, dye stock was added to give a final concentration of 1.42 μM. Samples were excited at 492 nm and fluorescence was recorded at 517 nm. […] See, FIG. 2.
The experiment was performed as described above except that the exact dye concentrations were unknown. Sample was dissolved in DMSO and diluted 2× in nano-pure H2O before running. Ex./Em. 549/577 nm. […] See, FIG. 1.
The experiment was performed as described above for cadmium ion detection except that the exact dye concentrations were unknown. Ex./Em. 348/397/481 nm (ratiometric).

Experiment [2] relates to intracellular Pb or Cd ions in 3T3 cells. Briefly: Compound 12 on 3T3 cells with PbCl2 or CdCl2, then TPEN chelation. The format is cell-based. Conditions: 400 nM Compound 12, 1 μM ionomycin. The protocol: 500 nM, 250 nM and 125 nM of PbCl2 and at concentration range 100 uM, 50 μM and 25 μM of CdCl2.
After fluorescence acquisition, TPEN, a cell-permeant heavy metal chelator, was added to the samples.

Entries after “also recorded” stand apart in the source; their conditions may differ.

As a reminder, the Kd is the free concentration of one partner at which half of the binding sites on the other are occupied at equilibrium, for simple one-to-one binding. `O=C(O)COc1ccccc1OCCOc1cc(-c2cc3ccc(C(=O)O)cc3[nH]2)ccc1N(CC(=O)O)CC(=O)O` [Compound 18] came in with a Kd in experiment [1] of 1200 nM.
`c1ccc(CN(CCN(Cc2ccccn2)Cc2ccccn2)Cc2ccccn2)nc1` [TPEN, tetrakis-(2-pyridylmethyl)ethylenediamine]: the “Change of Compound 12 fluorescence after addition of the chelator” value in experiment [2] is reported as “drop of fluorescence after TPEN addition; also recorded: drop in fluorescence from the viable cells”.

For the origin of these results see patent US8680320B2, “Heavy metal binding compounds and their method of use” (Life Technologies Corporation, priority 2006, dated 2014).
